Residue numbers refer to the chain shown, from its start. Where a SMILES comes first, the peptide text is derived from it. Bridges are numbered along the chain shown (N, C = ends).
Legend:
Test in all cases: cAMP accumulation
Format in all cases: cell-based
hCTR V283A = molecular target: T1, hCTR V283A (Homo sapiens, UniProt P30988, V283A); settings: mean ± S.E.M.; for Emax: cAMP maximal response, SEM; for EC50: cAMP, CV1-FlpIn cells, 30 min, IBMX
T1 construct: expressed in transfected cells
T1 sequence (P30988 25-474 V283A): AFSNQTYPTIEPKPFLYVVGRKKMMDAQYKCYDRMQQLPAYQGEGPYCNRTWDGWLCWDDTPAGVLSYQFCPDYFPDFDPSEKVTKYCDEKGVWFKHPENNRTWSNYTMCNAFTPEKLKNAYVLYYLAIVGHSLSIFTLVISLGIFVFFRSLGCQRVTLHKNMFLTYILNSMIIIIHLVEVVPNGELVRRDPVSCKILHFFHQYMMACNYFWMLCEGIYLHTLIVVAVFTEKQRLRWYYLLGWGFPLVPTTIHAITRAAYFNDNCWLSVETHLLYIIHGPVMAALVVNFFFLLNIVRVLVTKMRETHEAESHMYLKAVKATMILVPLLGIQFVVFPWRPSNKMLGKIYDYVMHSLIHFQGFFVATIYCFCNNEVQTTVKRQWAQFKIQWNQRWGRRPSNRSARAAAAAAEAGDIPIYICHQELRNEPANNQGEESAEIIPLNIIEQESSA
Protocol: (§1) Cells (2.5 × 10^4 cells/well) were seeded into 96-well plates and incubated overnight. Cells were stimulated with increasing concentrations of ligands for 30 min in the presence of IBMX. The liquid was discarded, changed to absolute ethanol and volatilized to dryness at room temperature. […] Data were normalized to the response of 100 μM forskolin.
(§2) Data were corrected for radioligand occupancy using the Cheng-Prusoff equation in Prism; as such data are reported as pKi. Emax and EC50 were estimated from concentration-response curves using with a 3-parameter logistic equation in Prism (v7). These values are a composite of functional affinity, efficacy and stimulus response coupling. […] Significance was accepted at P < 0.05.

hCTR L291A = molecular target: T2, hCTR L291A (Homo sapiens, UniProt P30988, L291A); settings: mean ± S.E.M.; for Emax: cAMP maximal response, SEM
T2 construct: expressed in transfected cells
T2 sequence (P30988 25-474 L291A): T1 sequence (P30988 25-474 V283A) with A259V, L267A
Protocol: as §1, §2

hCTR W361A = molecular target: T3, hCTR W361A (Homo sapiens, UniProt P30988, W361A); settings: mean ± S.E.M.; for Emax: cAMP maximal response, SEM; for EC50: cAMP, CV1-FlpIn cells, 30 min, IBMX
T3 construct: expressed in transfected cells
T3 sequence (P30988 25-474 W361A): T1 sequence (P30988 25-474 V283A) with A259V, W337A
Protocol: as §1, §2

hCTR C289A = molecular target: T4, hCTR C289A (Homo sapiens, UniProt P30988, C289A); settings: mean ± S.E.M.; for Emax: cAMP maximal response, SEM
T4 construct: c-Myc (N); expressed in transfected cells
T4 sequence (P30988 25-474 C289A): T1 sequence (P30988 25-474 V283A) with A259V, C265A
Protocol: as §1, §2

hCTR M376A = molecular target: T5, hCTR M376A (Homo sapiens, UniProt P30988, M376A); settings: mean ± S.E.M.; for Emax: cAMP maximal response, SEM; for EC50: cAMP, CV1-FlpIn cells, 30 min, IBMX
T5 construct: c-Myc (N); expressed in transfected cells
T5 sequence (P30988 25-474 M376A): T1 sequence (P30988 25-474 V283A) with A259V, M352A
Protocol: as §1, §2

[1] = cAMP, CV1-FlpIn cells, 30 min, IBMX

EC50 (hCTR V283A) [nM] | EC50 (hCTR W361A) [nM] | EC50 (hCTR M376A) [nM] | EC50 (hCTR L291A; [1]) [nM] | EC50 (hCTR C289A; [1]) [nM] | Compound | Emax (hCTR V283A) [%] | Emax (hCTR L291A) [%] | Emax (hCTR W361A) [%] | Emax (hCTR C289A) [%] | Emax (hCTR M376A) [%]
 |  |  |  |  | CC[C@H](C)[C@H](NC(=O)[C@H](C)NC(=O)[C@@H](NC(=O)[C@H](CCC(N)=O)NC(=O)[C@@H]1CCCN1C(=O)[C@H](Cc1ccccc1)NC(=O)[C@@H](NC(=O)[C@H](Cc1c[nH]cn1)NC(=O)[C@H](Cc1ccccc1)NC(=O)[C@H](CCCCN)NC(=O)[C@H](CC(N)=O)NC(=O)[C@H](Cc1ccccc1)NC(=O)[C@H](CC(=O)O)NC(=O)[C@H](CCC(N)=O)NC(=O)[C@@H](NC(=O)[C@H](Cc1ccc(O)cc1)NC(=O)[C@@H](NC(=O)CNC(=O)[C@H](CC(C)C)NC(=O)[C@H](CCSC)NC(=O)[C@@H]1CSSC[C@H](N)C(=O)NCC(=O)N[C@@H](CC(N)=O)C(=O)N[C@@H](CC(C)C)C(=O)N[C@@H](CO)C(=O)N[C@@H]([C@@H](C)O)C(=O)N1)[C@@H](C)O)[C@@H](C)O)[C@@H](C)O)[C@@H](C)O)C(=O)NCC(=O)N[C@H](C(=O)NCC(=O)N[C@@H](C)C(=O)N1CCC[C@H]1C(N)=O)C(C)C [hCT] | 90 ± 7 | 131 ± 5 | 132 ± 9 | 148 ± 7 | 84.3 ± 10
12.9 | 97.7 | 141 |  |  | CC(C)C[C@H](NC(=O)CNC(=O)[C@H](C)NC(=O)[C@H](CC(C)C)NC(=O)[C@H](CCCNC(=N)N)NC(=O)[C@H](Cc1cnc[nH]1)NC(=O)[C@@H](NC(=O)[C@@H](NC(=O)[C@@H]1CSSC[C@H](NC(=O)[C@H](C)N)C(=O)N[C@@H](CC(=O)O)C(=O)N[C@@H]([C@@H](C)O)C(=O)N[C@@H](C)C(=O)N[C@@H]([C@@H](C)O)C(=O)N1)C(C)C)[C@@H](C)O)C(=O)N[C@@H](CC(C)C)C(=O)N[C@@H](CO)C(=O)N[C@@H](CCCNC(=N)N)C(=O)N[C@@H](CO)C(=O)NCC(=O)NCC(=O)N[C@H](C(=O)N[C@H](C(=O)N[C@@H](CCCCN)C(=O)N[C@@H](CC(N)=O)C(=O)N[C@@H](CC(N)=O)C(=O)N[C@@H](Cc1ccccc1)C(=O)N[C@H](C(=O)N1CCC[C@H]1C(=O)N[C@H](C(=O)N[C@@H](CC(N)=O)C(=O)N[C@H](C(=O)NCC(=O)N[C@@H](CO)C(=O)N[C@@H](CCCCN)C(=O)N[C@@H](C)C(=O)N[C@@H](Cc1ccccc1)C(N)=O)C(C)C)[C@@H](C)O)C(C)C)C(C)C)C(C)C [hαCGRP] | 130 ± 19 | 101 ± 36 | 102 ± 16 |  | 47 ± 7
0.0316 | 0.148 | 0.234 | 0.316 | 1.02 | CSCC[C@H](NC(=O)CNC(=O)[C@H](CO)NC(=O)[C@H](Cc1ccccc1)NC(=O)[C@H](CCCNC(=N)N)NC(=O)[C@H](Cc1c[nH]cn1)NC(=O)[C@H](Cc1ccccc1)NC(=O)[C@H](CC(N)=O)NC(=O)[C@H](CC(N)=O)NC(=O)[C@H](CC(C)C)NC(=O)[C@H](CC(N)=O)NC(=O)[C@H](CCCNC(=N)N)NC(=O)[C@H](Cc1c[nH]c2ccccc12)NC(=O)[C@H](Cc1ccc(O)cc1)NC(=O)[C@H](C)NC(=O)[C@H](CO)NC(=O)[C@H](CC(C)C)NC(=O)[C@@H](NC(=O)[C@@H]1CSSC[C@H](N)C(=O)N[C@@H](CO)C(=O)N[C@@H](CC(N)=O)C(=O)N[C@@H](CC(C)C)C(=O)N[C@@H](CO)C(=O)N[C@@H]([C@@H](C)O)C(=O)N1)C(C)C)C(=O)NCC(=O)N[C@@H](Cc1ccccc1)C(=O)NCC(=O)N1CCC[C@H]1C(=O)N[C@@H](CCC(=O)O)C(=O)N[C@H](C(=O)N1CCC[C@H]1C(N)=O)[C@@H](C)O [pCT] (H-CSNLSTCVLSAYWRNLNNFHRFSGMGFGPETP-NH2; disulfide 1-7) | 107 ± 9 | 105 ± 5 | 133 ± 9 | 115 ± 7 | 87 ± 11
 |  |  |  |  | CC(C)C[C@H](NC(=O)[C@H](CC(N)=O)NC(=O)[C@H](CC(N)=O)NC(=O)[C@H](CO)NC(=O)[C@H](CO)NC(=O)[C@H](CCCNC(=N)N)NC(=O)[C@@H](NC(=O)[C@H](CC(C)C)NC(=O)[C@H](Cc1ccccc1)NC(=O)[C@H](CC(N)=O)NC(=O)[C@H](C)NC(=O)[C@H](CC(C)C)NC(=O)[C@H](CCCNC(=N)N)NC(=O)[C@H](CCC(N)=O)NC(=O)[C@@H](NC(=O)[C@H](C)NC(=O)[C@@H]1CSSC[C@H](NC(=O)[C@@H](N)CCCCN)C(=O)N[C@@H](CC(N)=O)C(=O)N[C@@H]([C@@H](C)O)C(=O)N[C@@H](C)C(=O)N[C@@H]([C@@H](C)O)C(=O)N1)[C@@H](C)O)C(C)C)C(=O)NCC(=O)N1CCC[C@H]1C(=O)N[C@H](C(=O)N[C@@H](CC(C)C)C(=O)N1CCC[C@H]1C(=O)N1CCC[C@H]1C(=O)N[C@H](C(=O)N[C@@H](CC(N)=O)C(=O)N[C@H](C(=O)NCC(=O)N[C@@H](CO)C(=O)N[C@@H](CC(N)=O)C(=O)N[C@H](C(=O)N[C@@H](Cc1ccc(O)cc1)C(N)=O)[C@@H](C)O)C(C)C)[C@@H](C)O)C(C)C [rAmy] | 77 ± 10 | 101 ± 13 | 102 ± 13 | 89 ± 23 | 85 ± 13
 |  |  |  |  | CC(C)C[C@H](NC(=O)[C@H](CCCCN)NC(=O)CNC(=O)[C@H](CC(C)C)NC(=O)[C@@H](NC(=O)[C@@H]1CSSC[C@H](N)C(=O)N[C@@H](CO)C(=O)N[C@@H](CC(N)=O)C(=O)N[C@@H](CC(C)C)C(=O)N[C@@H](CO)C(=O)N[C@@H]([C@@H](C)O)C(=O)N1)C(C)C)C(=O)N[C@@H](CO)C(=O)N[C@@H](CCC(N)=O)C(=O)N[C@@H](CCC(=O)O)C(=O)N[C@@H](CC(C)C)C(=O)N[C@@H](Cc1c[nH]cn1)C(=O)N[C@@H](CCCCN)C(=O)N[C@@H](CC(C)C)C(=O)N[C@@H](CCC(N)=O)C(=O)N[C@H](C(=O)N[C@@H](Cc1ccc(O)cc1)C(=O)N1CCC[C@H]1C(=O)N[C@@H](CCCNC(=N)N)C(=O)N[C@H](C(=O)N[C@@H](CC(N)=O)C(=O)N[C@H](C(=O)NCC(=O)N[C@@H](CO)C(=O)NCC(=O)N[C@H](C(=O)N1CCC[C@H]1C(N)=O)[C@@H](C)O)[C@@H](C)O)[C@@H](C)O)[C@@H](C)O [sCT] | 116 ± 12 | 108 ± 4 | 126 ± 7 | 140 ± 7 | 102 ± 6
